Measured values from patent publication US10570122B2, “Compounds with anti-tumoral activity” (AB Science, priority 2015, dated 2020).
pIC50: −log10 of the molar value.

Columns and labels:
MDAMB231 = assay: CellTiter-Blue cell-based survival/proliferation assay, MDAMB231; conditions: Homo sapiens, MDA-MB-231; MDAMB231 breast tumor cell line, 48 h
In short: (§1)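 Compounds, diluted tenfold serially over 0–10 μM, are applied to 1·10^4 seeded cells per well for 48 h at 37 °C. Resorufin formed during a further 4 h with CellTiter-Blue is detected by fluorescence emission at 590 nm.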

DU145 = assay: CellTiter-Blue cell-based survival/proliferation assay, DU145; conditions: Homo sapiens, DU-145; DU145 prostate tumor cell line, 48 h
In short: as §1

RL = assay: CellTiter-Blue cell-based survival/proliferation assay, RL; conditions: Homo sapiens, Lymphoma cell line RL, 48 h, read-out: Anti-tumoral activity (measured IC50) RL
Protocol: Cell-Based Proliferation Screening of Compounds
CellTiter-Blue cell-based survival/proliferation assay (Promega G8080) was performed on tumor cell lines. A total of 1·10^4 cells/well/50 μl were seeded in a 96-wells plate. Treatment was initiated by addition of a 2× drug solution of 1/10 serial dilutions ranging from 0 to 10 μM. Cells were grown for 48 h at 37° C. and then incubated with 10 μl/well of Promega CellTiter-Bleue reagent for 4 h at 37° C. The amount of resorufin dye formed was quantified by its fluorescence emission at 590 nm using a scanning multiwell spectrophotometer (OPTIMA, BMG labtech, France). A blank well without cells was used as a background control for the spectrophotometer.

MESSA = assay: CellTiter-Blue cell-based survival/proliferation assay, MESSA; conditions: Homo sapiens, MES-SA; MESSA ovary tumor cell line, 48 h
In short: as §1

TOV112D = assay: CellTiter-Blue cell-based survival/proliferation assay, TOV112D; conditions: Homo sapiens; TOV112D ovary tumor cell line, 48 h
In short: as §1

DLD1 = assay: CellTiter-Blue cell-based survival/proliferation assay, DLD1; conditions: Homo sapiens, DLD-1; DLD_1 colorectal tumor cell line, 48 h
In short: as §1

[1] = test system: panel of about 34 human tumor cell lines; assay: Cell-based proliferation screening on panel of tumor cell lines; conditions: solid tumor cell line, cell line unknown, 48 h, read-out: IC50, solid tumor cell line of column 6 (last section of Table 3)
In short: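 CellTiter-Blue survival assay with 1·10^4 cells/well, each line treated 48 h at 37° C with 1/10 serial dilutions from 0 to 10 μM. Resorufin formed during a 4 h reagent incubation is read by fluorescence at 590 nm. A cell-free blank serves as background.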

A498 = assay: CellTiter-Blue cell-based survival/proliferation assay, A498; conditions: Homo sapiens; A498 kidney tumor cell line, 48 h
In short: as §1

PANC1 = assay: CellTiter-Blue cell-based survival/proliferation assay, PANC1; conditions: Homo sapiens, PANC-1; PANC_1 pancreas tumor cell line, 48 h
In short: as §1

SW579 = assay: CellTiter-Blue cell-based survival/proliferation assay, SW579; conditions: Homo sapiens; SW579 head & neck tumor cell line, 48 h
In short: as §1

BT20 = assay: CellTiter-Blue cell-based survival/proliferation assay, BT20; conditions: Homo sapiens, BT-20; BT20 breast tumor cell line, 48 h
In short: as §1

HUT78 = assay: CellTiter-Blue cell-based survival/proliferation assay, HUT78; conditions: Homo sapiens, Lymphoma cell line HUT78, 48 h, read-out: Anti-tumoral activity (measured IC50) HUT78
In short: as §1

ACHN = assay: CellTiter-Blue cell-based survival/proliferation assay, ACHN; conditions: Homo sapiens; ACHN kidney tumor cell line, 48 h
In short: as §1

CLS354 = assay: CellTiter-Blue cell-based survival/proliferation assay, CLS354; conditions: Homo sapiens, CLS-354; CLS354_4 head & neck tumor cell line, 48 h
In short: as §1

A549 = assay: CellTiter-Blue cell-based survival/proliferation assay, A549; conditions: Homo sapiens; A549 lung tumor cell line, 48 h
In short: as §1

HEPG2 = assay: CellTiter-Blue cell-based survival/proliferation assay, HEPG2; conditions: Homo sapiens; HEPG2 liver tumor cell line, 48 h
In short: as §1

PC3 = assay: CellTiter-Blue cell-based survival/proliferation assay, PC3; conditions: Homo sapiens, PC-3; PC3 prostate tumor cell line, 48 h
In short: as §1

BXPC3 = assay: CellTiter-Blue cell-based survival/proliferation assay, BXPC3; conditions: Homo sapiens, BXPC-3; BXPC3 pancreas tumor cell line, 48 h
In short: as §1

HEP2 = assay: CellTiter-Blue cell-based survival/proliferation assay, HEP2; conditions: Homo sapiens, HEp-2; HEP2 head & neck tumor cell line, 48 h
In short: as §1

OPM2 = assay: CellTiter-Blue cell-based survival/proliferation assay, OPM2; conditions: Homo sapiens, OPM-2, Myeloma cell line OPM2, 48 h, read-out: Anti-tumoral activity (measured IC50) OPM2
In short: as §1

HL60 = assay: CellTiter-Blue cell-based survival/proliferation assay, HL60; conditions: Homo sapiens, HL-60, Leukemia cell line HL60, 48 h, read-out: Anti-tumoral activity (measured IC50) HL60
In short: as §1

PLCPRF5 = assay: CellTiter-Blue cell-based survival/proliferation assay, PLCPRF5; conditions: Homo sapiens, PLC-PRF-5; PLC_PRF5 liver tumor cell line, 48 h
In short: as §1

HGC27 = assay: CellTiter-Blue cell-based survival/proliferation assay, HGC27; conditions: Homo sapiens, HGC-27; HGC27 stomach tumor cell line, 48 h
In short: as §1

AGS = assay: CellTiter-Blue cell-based survival/proliferation assay, AGS; conditions: Homo sapiens; AGS stomach tumor cell line, 48 h
In short: as §1

CALU6 = assay: CellTiter-Blue cell-based survival/proliferation assay, CALU6; conditions: Homo sapiens, Calu-6; CALU6 lung tumor cell line, 48 h
In short: as §1

H1299 = assay: CellTiter-Blue cell-based survival/proliferation assay, H1299; conditions: Homo sapiens, NCI-H1299; H1299 lung tumor cell line, 48 h
In short: as §1

HCT116 = assay: CellTiter-Blue cell-based survival/proliferation assay, HCT116; conditions: Homo sapiens, HCT-116; HCT116 colorectal tumor cell line, 48 h
In short: as §1

KARPAS299 = assay: CellTiter-Blue cell-based survival/proliferation assay, KARPAS299; conditions: Homo sapiens, KARPAS-299, Lymphoma cell line KARPAS299, 48 h, read-out: Anti-tumoral activity (measured IC50) KARPAS299
In short: as §1

Measured: pIC50

CCOCc1ccc(C)c(Nc2ncc(-c3ccc(-n4ccnc4)cc3)o2)c1 [Example 037, (5-Ethoxymethyl-2-methyl-phenyl)-[5-(4-imidazol-1-yl-phenyl)-oxazol-2-yl]-amine]
< 6.00: all assays above
